Measured values published in patent US20260137687A1, “GTPase INHIBITORS AND USES THEREOF” (The Regents of The University of California, priority 2022, published 2026).

Assays:
[1] = target: T1, K-Ras(G12R)·GDP (Homo sapiens, UniProt P01116, G12R); experiment: Differential scanning fluorimetry; assay type: binding
T1 construct: human K-Ras (G12R, aa 1-169); 6xHis tag + TEV cleavage site (N, cleaved yes); made in house; host or cells: E. coli BL21(DE3)
Protocol: The protein of interest was diluted with SEC Buffer [20 mM HEPES 7.5, 150 mM NaCl, 1 mM MgCl2] to 8 μM. This solution was dispensed into wells of a white 96-well PCR plate in triplicate (25 μL/well). Fluorescence was measured at 0.5° C. temperature intervals every 30 s from 25° C. to 95° C. on a Bio-Rad CFX96 qPCR system using the FRET setting. Each data set was normalized to the highest fluorescence and the normalized fluorescence reading was plotted against temperature in GraphPad Prism 8.0. Tm values were determined as the temperature(s) corresponding to the maximum(ma) of the first derivative of the curve.

[2] = tested on: BaF3/G12R cells (±IL-3), TCC-Pan-2 cells, and A375 cells; experiment: Cellular activity (phospho-ERK immunoblot, growth inhibition); assay type: cell-based; details: at concentrations below 100 μM
Protocol: When indicated, cells were treated with drugs at 40-60% confluency at a final DMSO concentration of 1%. At the end of treatment period, cells were placed on ice. Unless otherwise indicated, adherent cells were washed once with ice-cold PBS (1 mL), scraped with a spatula, and pelleted by centrifugation (500×g, 5 min). Suspension cells were pelleted by centrifugation (500×g, 5 min), washed with 1 mL ice-cold PBS, and pelleted again. Cells were lysed in RIPA buffer supplemented with protease and phosphatase inhibitors (cOmplete and phosSTOP, Roche) on ice for 10 min. Lysates were clarified by high-speed centrifugation (19,000×g, 10 min). Concentrations of lysates were determined with protein BCA assay (Thermo Fisher) and adjusted to 2 mg/mL with additional RIPA buffer (or Co-IP Lysis Buffer). Samples were mixed with 5×SDS Loading Dye and heated at 95° C. for 5 min.
Cells were seeded into 96-well white flat bottom plates (1,000 cells/well) (Corning) and incubated overnight. Cells were treated with the indicated compounds in a nine-point threefold dilution series (100 μL final volume) and incubated for 72 h. Cell viability was assessed using a commercial CellTiter-Glo (CTG) luminescence-based assay (Promega). […] Plates were placed on an orbital shaker for 30 min before recording luminescence using a Spark 20M (Tecan) plate reader.

[3] = target: K-Ras(G12R) (Homo sapiens, UniProt P01116, G12R); experiment: Sos- or EDTA-mediated nucleotide exchange assay; assay type: biochemical; parameters: human K-Ras (G12R, aa 1-169); 6xHis tag + TEV cleavage site (N, cleaved yes); made in house; host or cells: E. coli BL21(DE3); details: BODIPY-GDP exchanged for unlabeled GDP; compound-bound K-Ras(G12R)
Protocol: This assay was performed as previously reported (38-41) with slight modifications. BODIPY-GDP-loaded K-Ras proteins were prepared freshly as follows. To a 10 μM solution of K-Ras(G12R)·GDP or K-Ras(G12R)·GDP·3 in SEC Buffer (1 mL) was added sequentially BODIPY-GDP (5 mM, 40 μL, Thermo Fisher, final concentration 200 μM) and Na-EDTA pH 8.0 (0.5 M, 5 μL, final concentration 2.5 mM). The mixture was incubated at 23° C. for 1 h, and a solution of MgCl2 (1.0 M, 20 μL, […]) was added to the reaction mixture. The protein solution was run through a PD-10 column to remove the excess nucleotide following the manufacturer's protocol. Briefly, sample (˜1.0 mL) and excess buffer (1.5 mL) were loaded onto the column (equilibrated with NucEx Buffer), and desalted protein was eluted with NucEx Buffer (3.5 mL). Desalted protein was diluted 1:1 to a concentration of roughly 1.5 μM in NucEx Buffer. 12 μL of this solution (triplicate for each condition) was added to wells of a black 384-well low-volume assay plate (Corning 4514). […] The plate was immediately placed in a TECAN Spark 20M plate reader, and fluorescence for BODIPY (excitation 488 nm, emission 520 nm) was read every 30 s over 1 h. Fluorescence intensity was normalized to values at time 0 and plotted again time. […]

## CC(=O)C(O)(O)C(=O)N1[C@@H]2CC[C@H]1CN(c1nc(OCC34CCCN3CCC4)nc3c(F)c(-c4cccc5cccc(Cl)c45)ncc13)C2 [compound 3, 1-((1R,5S)-3-(7-(8-chloronaphthalen-1-yl)-8-fluoro-2-((tetrahydro-1H-pyrrolizin-7a(5H)-yl)methoxy)pyrido[4,3-d]pyrimidin-4-yl)-3,8-diazabicyclo[3.2.1]octan-8-yl)-2,2-dihydroxybutane-1,3-dione]
[1]
  increase of melting temperature of K-Ras(G12R)·GDP·3 adduct vs unmodified K-Ras(G12R)·GDP: 9.1 °C
[2]
  cellular activity: did not show cellular activity
[3]
  Sos-mediated nucleotide exchange: inhibited
  rate of EDTA-mediated nucleotide exchange: significantly reduced
